In US7423121B2, “Sodium channel rNav1.5a” (Neurosearch A/S, priority 2000, dated 2008):

Assays:
rNav1.2a = rNav1.2a (Rattus norvegicus, UniProt P04775); experiment: Whole-cell recording of peak sodium current, inhibition by Lamotrigine, classical brain type rNav1.2a; format: cell-based; settings: physiological saline, stimulation every 5 second, step from holding potential (e.g. −90 mV) to −10 mV
Procedure: (§1) Comparison of the Inhibitory Effect of Lamotrigine on the Classical Brain Type rNav1.2a and the Sodium Channel Expressed Endogenously in HiB5 Cells (rNav1.5a)
(§2) Experiments were performed as whole-cell recordings in physiological saline with stimulation of the sodium channel every 5 second by stepping from a holding potential (e.g. −90 mV) to −10 mV and monitoration of the peak current as a function of the concentration of Lamotrigine added to the recording chamber.

rNav1.5a = target: T1, rNav1.5a (Rattus norvegicus, UniProt P15389); experiment: Whole-cell recording of peak sodium current, inhibition by Lamotrigine, sodium channel expressed endogenously in HiB5 cells (rNav1.5a); format: cell-based
T1 construct: the Sodium Channel Expressed Endogenously in HiB5 Cells (rNav1.5a); endogenous in cells; host or cells: HiB5 (rat hippocampal stem cell line)
Procedure: as §1, §2

T1 sequence (P15389 1-1966 isoform P15389-2): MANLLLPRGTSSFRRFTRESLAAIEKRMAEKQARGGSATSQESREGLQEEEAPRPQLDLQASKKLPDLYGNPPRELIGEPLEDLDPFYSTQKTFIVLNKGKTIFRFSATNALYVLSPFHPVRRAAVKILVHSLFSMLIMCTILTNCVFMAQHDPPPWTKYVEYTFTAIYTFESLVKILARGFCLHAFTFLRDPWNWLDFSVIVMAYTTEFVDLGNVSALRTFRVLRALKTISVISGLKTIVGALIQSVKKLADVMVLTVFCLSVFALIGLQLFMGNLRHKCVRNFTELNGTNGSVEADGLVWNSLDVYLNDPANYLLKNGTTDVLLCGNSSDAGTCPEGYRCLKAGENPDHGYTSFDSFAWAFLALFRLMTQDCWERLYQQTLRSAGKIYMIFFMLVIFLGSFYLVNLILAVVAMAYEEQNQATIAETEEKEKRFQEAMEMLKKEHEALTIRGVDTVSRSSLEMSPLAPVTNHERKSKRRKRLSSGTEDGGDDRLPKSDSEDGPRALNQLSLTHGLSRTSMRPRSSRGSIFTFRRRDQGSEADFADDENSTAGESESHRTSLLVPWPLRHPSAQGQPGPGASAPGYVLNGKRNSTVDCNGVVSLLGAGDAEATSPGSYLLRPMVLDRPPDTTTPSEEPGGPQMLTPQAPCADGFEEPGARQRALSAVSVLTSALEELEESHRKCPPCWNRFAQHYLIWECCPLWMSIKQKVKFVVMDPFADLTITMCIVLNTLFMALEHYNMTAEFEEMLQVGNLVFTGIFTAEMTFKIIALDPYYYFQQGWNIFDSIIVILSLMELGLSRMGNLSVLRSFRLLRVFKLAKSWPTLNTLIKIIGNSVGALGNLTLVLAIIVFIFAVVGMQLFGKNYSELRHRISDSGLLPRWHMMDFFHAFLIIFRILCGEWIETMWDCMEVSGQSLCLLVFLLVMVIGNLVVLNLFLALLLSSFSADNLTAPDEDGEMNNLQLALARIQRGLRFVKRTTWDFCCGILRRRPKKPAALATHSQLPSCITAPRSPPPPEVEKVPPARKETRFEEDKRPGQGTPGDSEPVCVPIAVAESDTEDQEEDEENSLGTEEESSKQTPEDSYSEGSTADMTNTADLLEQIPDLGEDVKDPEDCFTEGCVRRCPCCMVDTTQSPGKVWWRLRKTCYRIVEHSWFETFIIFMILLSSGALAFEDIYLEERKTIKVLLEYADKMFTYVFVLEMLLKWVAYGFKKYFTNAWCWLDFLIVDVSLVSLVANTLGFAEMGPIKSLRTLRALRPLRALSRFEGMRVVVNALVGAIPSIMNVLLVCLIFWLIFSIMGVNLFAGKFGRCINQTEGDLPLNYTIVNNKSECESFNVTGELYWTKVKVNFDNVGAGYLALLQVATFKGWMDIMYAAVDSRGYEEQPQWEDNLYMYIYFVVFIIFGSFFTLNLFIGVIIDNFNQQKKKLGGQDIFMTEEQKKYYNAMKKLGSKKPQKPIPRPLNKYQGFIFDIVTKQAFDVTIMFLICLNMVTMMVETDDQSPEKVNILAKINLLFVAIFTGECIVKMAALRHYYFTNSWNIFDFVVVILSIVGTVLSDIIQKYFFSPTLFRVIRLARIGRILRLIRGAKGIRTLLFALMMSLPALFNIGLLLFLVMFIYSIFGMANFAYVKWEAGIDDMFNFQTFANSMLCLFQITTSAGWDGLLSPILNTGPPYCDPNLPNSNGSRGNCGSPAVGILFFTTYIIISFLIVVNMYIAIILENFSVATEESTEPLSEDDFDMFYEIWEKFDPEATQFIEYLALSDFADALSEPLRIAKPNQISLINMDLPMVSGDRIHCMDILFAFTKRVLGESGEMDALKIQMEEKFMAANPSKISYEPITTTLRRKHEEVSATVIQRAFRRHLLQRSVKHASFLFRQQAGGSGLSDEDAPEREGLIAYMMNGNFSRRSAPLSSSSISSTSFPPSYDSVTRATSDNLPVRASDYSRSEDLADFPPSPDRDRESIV

- IC50 (rNav1.2a): 500 µM
Compound: Nc1nnc(-c2cccc(Cl)c2Cl)c(N)n1 [Lamotrigine]
- IC50 (rNav1.5a; HiB5 cells, whole-cell recording, physiological saline, stimulation every 5 second, step from holding potential (e.g. −90 mV) to −10 mV): 20 µM
- Potency on rNav1.5a relative to classical brain subtype BIIA (rNav1.5a; comparison with BIIA (rNav1.2a), see Example 2): more potently
